Columns and labels:
[1] = biological target: T1, neurokinin-1 (NK-1) receptor (Homo sapiens, UniProt P25103); test: NK-1 Binding assay ([125I] Substance P competition, U373 cell membranes); conditions: Bolton Hunter labeled [125I] Substance P, 30 min at 20° C.
T1 construct: endogenously expresses the neurokinin-1 (NK-1) receptor; endogenous in cells; host or cells: U373 human glioblastoma-astrocytoma cells (membranes)
Method: NK-1 Binding assay. U373 cells, a human glioblastoma-astrocytoma cell line that endogenously expresses the neurokinin-1 (NK-1) receptor, were grown in a monolayer culture at 37° C. in 5% CO2 and fed with Minimum Essential Medium (MEM) supplemented with 10% fetal bovine serum. Membranes were prepared as follows: Cells were washed twice with ice-cold phosphate-buffered saline (pH 7.4) and then incubated for 5–10 minutes with ice-cold 10 mM Tris buffer (pH 7.4) containing 5 mM EDTA. Cells were removed from plates, homogenized, and centrifuged at 32,000×g for 20 minutes. The resulting supernatant was discarded, and the pellet resuspended by homogenization in 50 mM Tris buffer (pH 7.4) containing 1 mM EDTA and centrifuged at 32,000×g for 20 minutes. The resulting supernatant was discarded, and the pellet resuspended by homogenization in NK-1 binding assay buffer (50 mM Tris-HCL (pH 7.4), 3 mM MnCl2, 200 μg/ml BSA, 5 μg/ml chymostatin, 40 μg/ml bacitracin and 4 μg/ml leupeptin).
On the day of an experiment the membrane preparation was thawed, homogenized and diluted with NK-1 binding assay buffer to the appropriate concentration. Competition binding assays were performed in 96 well plate format by incubating membranes (5–10 μg/well) with Bolton Hunter labeled [^125I] Substance P, at a concentration of […], and concentrations of drugs ranging from 10000 to 0.01 nM. Samples were incubated for 30 min at 20° C. then filtered through GF/B glass fiber filters (pretreated with 1% polyethyleneimine and 0.3% Triton X-100) using a Brandel cell harvester. The filters were then washed with 10 ml ice cold 50 mM Tris-HCL (pH 7.4) containing 3 mM MgCl2. Non-specific was defined in the presence of 2 μM L-733,060 (a non-peptide NK-1 antagonist). The amount of radioligand bound in the presence and absence of competitor was analyzed by plotting (−)log drug concentration versus the amount of radioligand specifically bound. The midpoint of the displacement curve (IC50, nM), signifies the potency. Ki values can be calculated using the method of Cheng and Prusoff (Cheng and Prusoff, Biochemical Pharmacology, Vol 22, pp. 3099–3108, Pergamon Press (1973)).

[2] = biological target: T2, human serotonin transporters (Homo sapiens, UniProt P31645); test: Serotonin transporter binding assay ([3H]-citalopram competition, HEK-hSERT cell membranes); conditions: 1 nM [3H]-citalopram, 1 hr at 25° C., read-out: SERT IC50
T2 construct: expressed in transfected cells
T2 sequence (P31645 whole entry): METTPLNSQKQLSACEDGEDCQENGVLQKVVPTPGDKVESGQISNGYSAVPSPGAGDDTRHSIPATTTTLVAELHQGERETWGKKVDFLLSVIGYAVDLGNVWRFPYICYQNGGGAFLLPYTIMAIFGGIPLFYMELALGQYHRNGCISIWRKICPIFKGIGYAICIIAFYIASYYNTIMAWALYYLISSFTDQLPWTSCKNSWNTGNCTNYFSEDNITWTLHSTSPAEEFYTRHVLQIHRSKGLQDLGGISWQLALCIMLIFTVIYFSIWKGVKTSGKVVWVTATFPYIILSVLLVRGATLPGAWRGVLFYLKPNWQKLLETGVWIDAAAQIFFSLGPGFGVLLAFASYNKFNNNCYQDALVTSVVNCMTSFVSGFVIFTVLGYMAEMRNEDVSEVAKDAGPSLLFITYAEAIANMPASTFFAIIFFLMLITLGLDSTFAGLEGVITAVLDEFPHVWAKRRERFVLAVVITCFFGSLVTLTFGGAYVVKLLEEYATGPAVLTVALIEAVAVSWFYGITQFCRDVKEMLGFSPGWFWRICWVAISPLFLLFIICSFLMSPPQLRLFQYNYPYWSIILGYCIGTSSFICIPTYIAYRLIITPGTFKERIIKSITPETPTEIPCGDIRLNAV
Method: Serotonin transporter binding assay. HEK-293 cells that stably express human serotonin transporters (HEK-hSERT cells) were grown at 37° C. in 5% CO2 as a monolayer in medium consisting of EMEM supplemented with 10% fetal bovine serum and G418 sulfate (500 μg/ml). To prepare membranes for radioligand binding experiments, cells were rinsed twice with phosphate-buffered saline (138 mM NaCl, 4.1 mM KCl, 5.1 mM Na2PO4, 1.5 mM KH2PO4, 11.1 mM glucose, pH 7.4). Cells were transferred from plates to polypropylene tubes (16×100 mm), centrifuged at 1,200×g for 5 min and were frozen at −80° C. until assay. Following centrifugation, pellets were resuspended by homogenization in buffer consisting of 50 mM Tris (pH 7.7 at 25° C.), 120 mM NaCl and 5 mM KCl and then centrifuged at 32,000×g for 10 min. Following centrifugation, supernatants were discarded and pellets were resuspended in buffer consisting of 50 mM Tris (pH 7.4 at 25° C.), 150 mM NaCl and 5 mM KCl. Membrane homogenates (200 μl/plate) were incubated with 1 nM [^3H]-citalopram (specific activity=85 Ci/mmol) and increasing concentrations of test compounds for 1 hr at 25° C. in a total volume of 250 μl. The assay buffer consisted of 50 mM Tris (pH 7.4 at 25° C.), 120 mM NaCl and 5 mM KCl (pH 7.4 with conc. HCl). Plates were incubated for 1 hr at 25° C., then filtered through 0.5% PEI treated Whatman GF/B filters using a Brandel cell harvester. Filters were washed three times with 3 ml of ice-cold tris wash buffer. Non-specific binding was defined with 10 μM fluoxetine. Amount of radioligand bound in the presence and absence of competitor was analyzed by plotting (−)log drug concentration versus the amount of radioligand specifically bound. The midpoint of the displacement curve (IC50, nM), signifies the potency. Ki values can be calculated using the method of Cheng and Prusoff (Cheng and Prusoff, Biochemical Pharmacology, Vol 22, pp. 3099–3108, Pergamon Press (1973)).

T1 sequence (P25103 whole entry): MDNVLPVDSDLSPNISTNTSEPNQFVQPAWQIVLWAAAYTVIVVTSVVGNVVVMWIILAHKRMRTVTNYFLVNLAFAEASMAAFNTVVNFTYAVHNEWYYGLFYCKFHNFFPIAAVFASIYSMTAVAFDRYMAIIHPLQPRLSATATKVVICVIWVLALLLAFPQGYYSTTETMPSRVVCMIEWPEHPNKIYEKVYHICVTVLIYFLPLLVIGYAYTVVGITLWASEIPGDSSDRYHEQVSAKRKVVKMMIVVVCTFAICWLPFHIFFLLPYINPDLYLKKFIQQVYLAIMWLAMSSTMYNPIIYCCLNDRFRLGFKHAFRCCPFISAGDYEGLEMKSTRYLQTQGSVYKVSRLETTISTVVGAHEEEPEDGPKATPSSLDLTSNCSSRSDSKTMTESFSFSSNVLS

Row | Compound | IC50 [1] [nM] | IC50 [2] [nM]
1 | NCCC(O)(COCc1cc(C(F)(F)F)cc(C(F)(F)F)c1)c1ccccc1 (racemic) [Example 7, 1-(3,5-bis(trifluoromethyl)benzyloxy)-4-amino-2-phenylbutan-2-ol] | 100 to 300 | > 300
2 | CN(C)CC(O)(COCc1cc(C(F)(F)F)cc(C(F)(F)F)c1)c1ccccc1 (centres unmarked) [Example 1, 1-(3,5-bis(trifluoromethyl)benzyloxy)-3-(dimethylamino)-2-phenylpropan-2-ol] | 1 to 100 | 100 to 300
3 | NCC(O)(COCc1cc(C(F)(F)F)cc(C(F)(F)F)c1)c1ccccc1 (centres unmarked) [Example 2, 1-(3,5-bis(trifluoromethyl)benzyloxy)-3-amino-2-phenylpropan-2-ol] | 1 to 100 | 1 to 100
4 | CNCC(O)(COCc1cc(C(F)(F)F)cc(C(F)(F)F)c1)c1ccccc1 (centres unmarked) [Example 3, 1-(3,5-bis(trifluoromethyl)benzyloxy)-3-(methylamino)-2-phenylpropan-2-ol] | 1 to 100 | 100 to 300
5 | NCCC(O)(COCc1cc(C(F)(F)F)cc(C(F)(F)F)c1)c1ccccc1 (centres unmarked) [Example 4, 1-(3,5-bis(trifluoromethyl)benzyloxy)-4-amino-2-phenylbutan-2-ol] | 1 to 100 | 1 to 100
6 | CN(C)CCC(O)(COCc1cc(C(F)(F)F)cc(C(F)(F)F)c1)c1ccccc1 (centres unmarked) [Example 5, 1-(3,5-bis(trifluoromethyl)benzyloxy)-4-(dimethylamino)-2-phenylbutan-2-ol] | 1 to 100 | > 300
7 | CNCCC(O)(COCc1cc(C(F)(F)F)cc(C(F)(F)F)c1)c1ccccc1 (centres unmarked) [Example 6, 1-(3,5-bis(trifluoromethyl)benzyloxy)-4-(methylamino)-2-phenylbutan-2-ol] | 1 to 100 | 1 to 100
8 | Cc1ccc(C(O)(CCN)COCc2cc(C(F)(F)F)cc(C(F)(F)F)c2)cc1 (centres unmarked) [Example 9, 1-(3,5-bis(trifluoromethyl)benzyloxy)-4-amino-2-p-tolylbutan-2-ol] | 1 to 100 | 1 to 100
9 | NCCC(O)(COCc1cc(C(F)(F)F)cc(C(F)(F)F)c1)c1ccc(Cl)c(Cl)c1 (centres unmarked) [Example 10, 1-(3,5-bis(trifluoromethyl)benzyloxy)-4-amino-2-(3,4-dichlorophenyl)butan-2-ol] | 1 to 100 | 100 to 300
10 | NCCC(O)(COCc1cc(C(F)(F)F)cc(C(F)(F)F)c1)c1ccc2ccccc2c1 (centres unmarked) [Example 11, 1-(3,5-bis(trifluoromethyl)benzyloxy)-4-amino-2-(naphthalen-2-yl)butan-2-ol] | 100 to 300 | 1 to 100
11 | NCCC(O)(COCc1cc(C(F)(F)F)cc(C(F)(F)F)c1)c1cccc(F)c1 (centres unmarked) [Example 12, 1-(3,5-bis(trifluoromethyl)benzyloxy)-4-amino-2-(3-fluorophenyl)butan-2-ol] | 1 to 100 | 1 to 100
12 | Cc1cc(C(O)(CCN)COCc2cc(C(F)(F)F)cc(C(F)(F)F)c2)ccc1F (centres unmarked) [Example 13, 1-(3,5-bis(trifluoromethyl)benzyloxy)-4-amino-2-(4-fluoro-3-methylphenyl)butan-2-ol] | 1 to 100 | 1 to 100
13 | COc1cccc(C(O)(CCN)COCc2cc(C(F)(F)F)cc(C(F)(F)F)c2)c1 (centres unmarked) [Example 14, 1-(3,5-bis(trifluoromethyl)benzyloxy)-4-amino-2-(3-methoxyphenyl)butan-2-ol] | 1 to 100 | 1 to 100
14 | NCCC(O)(COCc1cc(C(F)(F)F)cc(C(F)(F)F)c1)c1ccc(F)c(F)c1 (centres unmarked) [Example 15, 1-(3,5-bis(trifluoromethyl)benzyloxy)-4-amino-2-(3,4-difluorophenyl)butan-2-ol] | 1 to 100 | 1 to 100
15 | CN(C)c1ccc(C(O)(CCN)COCc2cc(C(F)(F)F)cc(C(F)(F)F)c2)cc1 (centres unmarked) [Example 16, 1-(3,5-bis(trifluoromethyl)benzyloxy)-4-amino-2-(4-(dimethylamino)phenyl)butan-2-ol] | > 300 | > 300
16 | Cc1cccc(C(O)(CCN)COCc2cc(C(F)(F)F)cc(C(F)(F)F)c2)c1 (centres unmarked) [Example 17, 1-(3,5-bis(trifluoromethyl)benzyloxy)-4-amino-2-m-tolylbutan-2-ol] | 1 to 100 | 1 to 100
17 | Cc1cc(C)cc(C(O)(CCN)COCc2cc(C(F)(F)F)cc(C(F)(F)F)c2)c1 (centres unmarked) [Example 18, 1-(3,5-bis(trifluoromethyl)benzyloxy)-4-amino-2-(3,5-dimethylphenyl)butan-2-ol] | 1 to 100 | 1 to 100
18 | NCCC(O)(COCc1cc(C(F)(F)F)cc(C(F)(F)F)c1)c1cc(F)cc(F)c1 (centres unmarked) [Example 19, 1-(3,5-bis(trifluoromethyl)benzyloxy)-4-amino-2-(3,5-difluorophenyl)butan-2-ol] | 1 to 100 | 100 to 300
19 | COc1ccc(C(O)(CCN)COCc2cc(C(F)(F)F)cc(C(F)(F)F)c2)cc1 (centres unmarked) [Example 20, 1-(3,5-bis(trifluoromethyl)benzyloxy)-4-amino-2-(4-methoxyphenyl)butan-2-ol] | 100 to 300 | 1 to 100
20 | NCCC(O)(COCc1cc(C(F)(F)F)cc(C(F)(F)F)c1)c1cccc(Cl)c1 (centres unmarked) [Example 21, 1-(3,5-bis(trifluoromethyl)benzyloxy)-4-amino-2-(3-chlorophenyl)butan-2-ol] | 1 to 100 | 1 to 100
21 | Cc1ccc(C(O)(CCN)COCc2cc(C(F)(F)F)cc(C(F)(F)F)c2)c2ccccc12 (centres unmarked) [Example 22, 1-(3,5-bis(trifluoromethyl)benzyloxy)-4-amino-2-(4-methylnaphthalen-1-yl)butan-2-ol] | 100 to 300 | 1 to 100
22 | COc1ccc(C(O)(CCN)COCc2cc(C(F)(F)F)cc(C(F)(F)F)c2)cc1F (centres unmarked) [Example 23, 1-(3,5-bis(trifluoromethyl)benzyloxy)-4-amino-2-(3-fluoro-4-methoxyphenyl)butan-2-ol] | 1 to 100 | 1 to 100
23 | NCCC(O)(COCc1cc(C(F)(F)F)cc(C(F)(F)F)c1)c1cc(F)cc(Cl)c1 (centres unmarked) [Example 24, 1-(3,5-bis(trifluoromethyl)benzyloxy)-4-amino-2-(3-chloro-5-fluorophenyl)butan-2-ol] | 1 to 100 | 100 to 300
24 | COc1ccc(F)cc1C(O)(CCN)COCc1cc(C(F)(F)F)cc(C(F)(F)F)c1 (centres unmarked) [Example 25, 1-(3,5-bis(trifluoromethyl)benzyloxy)-4-amino-2-(5-fluoro-2-methoxyphenyl)butan-2-ol] | 1 to 100 | 100 to 300
25 | Cc1cccc(C(O)(CCN)COCc2cc(C(F)(F)F)cc(C(F)(F)F)c2)c1C (centres unmarked) [Example 26, 1-(3,5-bis(trifluoromethyl)benzyloxy)-4-amino-2-(2,3-dimethylphenyl)butan-2-ol] | 1 to 100 | 1 to 100
26 | COc1ccc(OC)c(C(O)(CCN)COCc2cc(C(F)(F)F)cc(C(F)(F)F)c2)c1 (centres unmarked) [Example 27, 1-(3,5-bis(trifluoromethyl)benzyloxy)-4-amino-2-(2,5-dimethoxyphenyl)butan-2-ol] | 100 to 300 | 1 to 100
27 | NCCC(O)(CNCc1cc(C(F)(F)F)cc(C(F)(F)F)c1)c1ccccc1 (centres unmarked) [Example 81] | 100 to 300 | –

— US7179926B2, “Aryloxyalkylamine NK-1/SSRI inhibitors” (Bristol-Myers Squibb Company, priority 2004, dated 2007)
